Our source for the IC50 values is US9957264B2 (Merck Sharp & Dohme Corp., priority 2013, dated 2018).

As usually defined, the IC50 is the concentration that gives 50% inhibition.

For assay [1], the target named is JAK1 (recombinant purified GST-tagged catalytic domain) (Homo sapiens (Human), UniProt P23458). Nature of the assay: Jak Biochemical HTRF Assay (JAK1). Conditions: [ATP] 31.8 μM. In a few lines: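 GST-tagged human catalytic domains of JAK1 or JAK2 phosphorylated a biotinylated peptide substrate for 120 min at room temperature after ATP addition. Reaction quenched with EDTA stop buffer containing streptavidin-Dylight 650 and Eu-pY20 antibody; HTRF 665/615 nm ratio normalized to untreated controls, IC50 from 4-parameter fit.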
Chain of JAK1 (recombinant purified GST-tagged catalytic domain) (P23458 875-1153): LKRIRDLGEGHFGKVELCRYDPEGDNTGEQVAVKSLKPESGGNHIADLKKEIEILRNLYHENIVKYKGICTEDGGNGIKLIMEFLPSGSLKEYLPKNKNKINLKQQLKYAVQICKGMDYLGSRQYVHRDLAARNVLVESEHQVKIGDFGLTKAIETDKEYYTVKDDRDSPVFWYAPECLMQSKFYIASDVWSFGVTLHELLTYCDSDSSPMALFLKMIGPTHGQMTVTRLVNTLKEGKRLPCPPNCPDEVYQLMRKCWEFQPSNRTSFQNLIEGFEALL

In assay [2] the target is JAK2 (recombinant purified GST-tagged catalytic domain) (Homo sapiens (Human), UniProt O60674). Nature of the assay: Jak Biochemical HTRF Assay (JAK2). Conditions: [ATP] 8.5 μM.
Chain of JAK2 (recombinant purified GST-tagged catalytic domain) (O60674 849-1124): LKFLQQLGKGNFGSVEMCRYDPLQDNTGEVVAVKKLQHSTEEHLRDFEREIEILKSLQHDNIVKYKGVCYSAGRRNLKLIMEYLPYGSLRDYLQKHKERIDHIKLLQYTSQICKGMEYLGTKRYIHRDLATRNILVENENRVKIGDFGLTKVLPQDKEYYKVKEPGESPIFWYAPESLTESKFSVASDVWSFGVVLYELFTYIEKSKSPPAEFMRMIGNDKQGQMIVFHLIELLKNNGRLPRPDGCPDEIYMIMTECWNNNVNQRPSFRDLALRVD

In the case of `N#CC[C@]1(n2nc(Nc3ccc(Cl)cc3)c3c(=O)[nH]ccc32)CC[C@H](N2CC(F)C2)CC1` [Example 18-6, Trans 2-(1-(3-((4-chlorophenyl)amino)-4-oxo-4,5-dihydro-1H-pyrazolo[4,3-c]pyridin-1-yl)-4-(3-fluoroazetidin-1-yl)cyclohexyl)acetonitrile], the IC50 was 0.09 nM in assay [1] and 1.75 nM in assay [2].

For `N#CCC1(n2nc(Nc3ccc([C@H](O)C(F)(F)F)cc3)c3c(=O)[nH]ccc32)CCN(c2cc(C(F)(F)F)ccn2)CC1` (single isomer, unassigned) [Example 16-3, (R or S)-2-(4-(4-Oxo-3-(4-(2,2,2-trifluoro-1-hydroxyethyl)phenylamino)-4,5-dihydropyrazolo[4,3-c]pyridin-1-yl)-1-(4-(trifluoromethyl)pyridin-2-yl)piperidin-4-yl)acetonitrile], the figures for the IC50 in assay [1] and in assay [2] were 1.15 nM and 3.82 nM, respectively.

As for `CC(C)(C)N[C@H](c1ccc(Nc2nn([C@@]3(CC#N)CCOC[C@H]3F)c3cc[nH]c(=O)c23)cc1)C(F)(F)F` (single isomer, unassigned) [Example 5-267, 2-((3S,4S or 3R,4R)-4-(3-((4-((R or S)-1-(tert-butylamino)-2,2,2-trifluoroethyl)phenyl)amino)-4-oxo-4,5-dihydro-1H-pyrazolo[4,3-c]pyridin-1-yl)-3-fluorotetrahydro-2H-pyran-4-yl)acetonitrile], the IC50 in assay [1] was 2.42 nM; in assay [2] it was 4.02 nM.

For `COC(=O)N1CCC(CC#N)(n2nc(Nc3ccc4c(c3)CCC4(O)C(F)(F)F)c3c(=O)[nH]ccc32)CC1` (single isomer, unassigned) [Example 5-143, (R or S)-methyl 4-(cyanomethyl)-4-(3-((1-hydroxy-1-(trifluoromethyl)-2,3-dihydro-1H-inden-5-yl)amino)-4-oxo-4,5-dihydro-1H-pyrazolo[4,3-c]pyridin-1-yl)piperidin-1-carboxylate], the IC50 in assay [1] was 0.18 nM; in assay [2] it was 0.66 nM.

Regarding `CC(C)(C)OC(=O)N1CCC(CC#N)(n2nc(Nc3ccc(C4(C(F)(F)F)CCNC4)cc3)c3c(=O)[nH]ccc32)CC1` (single isomer, unassigned) [Example 5-282, (S or R) tert-butyl 4-(cyanomethyl)-4-(4-oxo-3-((4-(3-(trifluoromethyl)pyrrolidin-3-yl)phenyl)amino)-4,5-dihydro-1H-pyrazolo[4,3-c]pyridin-1-yl)piperidine-1-carboxylate], the values for the IC50 in assay [1] and in assay [2] were 0.33 nM and 0.49 nM, respectively.

As to `Cc1cc(Nc2nn(C3(CC#N)CCN(C(=O)OC(C)(C)C)CC3)c3cc[nH]c(=O)c23)ccc1C(=O)N1CC2CCC(C1)O2` [Example 21-12, tert-butyl-4-(3-((4-(8-oxa-3-azabicyclo[3.2.1]octane-3-carbonyl)-3-methylphenyl)amino)-4-oxo-4,5-dihydro-1H-pyrazolo[4,3-c]pyridin-1-yl)-4-(cyanomethyl)piperidine-1-carboxylate], the IC50 amounted to 0.26 nM in assay [1] and 0.18 nM in assay [2].

As to `CS(=O)(=O)c1ccc(Nc2nn([C@@]3(CC#N)CCCOC3)c3cc[nH]c(=O)c23)cc1` [Example 5-30, (R)-2-(3-(3-((4-(methylsulfonyl)phenyl)amino)-4-oxo-4,5-dihydro-1H-pyrazolo[4,3-c]pyridin-1-yl)tetrahydro-2H-pyran-3-yl)acetonitrile], the IC50 was found to be 12.6 nM in assay [1] and 58 nM in assay [2].

Regarding `N#CC[C@]1(n2nc(Nc3ccc(S(=O)(=O)C(F)F)cc3)c3c(=O)[nH]ccc32)CC[C@@H](N2CC(F)C2)CC1` [Example 18-27, Cis 2-(1-(3-((4-((difluoromethyl)sulfonyl)phenyl)amino)-4-oxo-4,5-dihydro-1H-pyrazolo[4,3-c]pyridin-1-yl)-4-(3-fluoroazetidin-1-yl)cyclohexyl)acetonitrile], the IC50 in assay [1] came to 2.23 nM; in assay [2], 9.07 nM.

`CC(C#N)OC(=O)N1CCC(CC#N)(n2nc(Nc3ccc(S(=O)(=O)N(C)C)cc3)c3c(=O)[nH]ccc32)CC1` (stereo not drawn) [Example 11-10, 1-cyanoethyl 4-(cyanomethyl)-4-(3-((4-(N,N-dimethylsulfamoyl)phenyl)amino)-4-oxo-4,5-dihydro-1H-pyrazolo[4,3-c]pyridin-1-yl)piperidine-1-carboxylate]: the results for the IC50 in assay [1] and in assay [2] were 0.06 nM and 0.1 nM, respectively.

In the case of `CN(C(C)(C)C)S(=O)(=O)c1ccc(Nc2nn(C3(CC#N)CCN(C(=O)C(C)(F)F)CC3)c3cc[nH]c(=O)c23)cc1` [Example 5-58, N-(tert-butyl)-4-((1-(4-(cyanomethyl)-1-(2,2-difluoropropanoyl)piperidin-4-yl)-4-oxo-4,5-dihydro-1H-pyrazolo[4,3-c]pyridin-3-yl)amino)-N-methylbenzenesulfonamide], the values for the IC50 in assay [1] and in assay [2] were 0.14 nM and 0.18 nM, respectively.

Regarding `CC(C)(C)OC(=O)[C@@H]1CC[C@@](CC#N)(n2nc(Nc3ccc4c(c3)CN(C3CCCC3)C4=O)c3c(=O)[nH]ccc32)CO1` [Example 5-102, (2S,5S)-tert-butyl 5-(cyanomethyl)-5-(3-((2-cyclopentyl-1-oxoisoindolin-5-yl)amino)-4-oxo-4,5-dihydro-1H-pyrazolo[4,3-c]pyridin-1-yl)tetrahydro-2H-pyran-2-carboxylate], the IC50 was found to be 0.1 nM in assay [1] and 0.2 nM in assay [2].

`Cc1ccc2cc(Nc3nn([C@]4(CC#N)CCCOC4)c4cc[nH]c(=O)c34)ccc2n1` [Example 5-226, (S)-2-(3-(3-((2-methylquinolin-6-yl)amino)-4-oxo-4,5-dihydro-1H-pyrazolo [4,3-c]pyridin-1-yl)tetrahydro-2H-pyran-3-yl)acetonitrile]: the IC50 came to 0.11 nM in assay [1] and 2.94 nM in assay [2].

For the compound `CC(C)(C)OC(=O)N1CCC(CC#N)(n2nc(Nc3ccc([C@]4(C(F)(F)F)CCCCN4)cc3)c3c(=O)[nH]ccc32)CC1` (single isomer, unassigned) [Example 21-16, (S or R)-tert-butyl 4-(cyanomethyl)-4-(4-oxo-3-(4-(2-(trifluoromethyl)piperidin-2-yl)phenylamino)-4,5-dihydropyrazolo[4,3-c]pyridin-1-yl)piperidine-1-carboxylate], the IC50 in assay [1] was found to be 0.71 nM; in assay [2] it was 0.64 nM.

For the compound `Cc1cc(Nc2nn(C3(CC#N)CCN(C(=O)OC(C)(C)C)CC3)c3cc[nH]c(=O)c23)ccc1C(=O)N1CCC(F)(F)CC1` [Example 21-11, tert-butyl 4-(cyanomethyl)-4-(3-((4-(4,4-difluoropiperidine-1-carbonyl)-3-methylphenyl)amino)-4-oxo-4,5-dihydro-1H-pyrazolo[4,3-c]pyridin-1-yl)piperidine-1-carboxylate], the figures for the IC50 in assay [1] and in assay [2] were 0.43 nM and 0.38 nM, respectively.

With `CN(C)S(=O)(=O)c1ccc(Nc2nn(C3(CC#N)CCN(C(=O)CCC(F)(F)F)CC3)c3cc[nH]c(=O)c23)cc1` [Example 9-21, 4-({1-[4-(cyanomethyl)-1-(4,4,4-trifluorobutanoyl)piperidin-4-yl]-4-oxo-4,5-dihydro-1H-pyrazolo[4,3-c]pyridin-3-yl}amino)-N,N-dimethylbenzenesulfonamide], the IC50 in assay [1] was found to be 0.08 nM; in assay [2] it was 0.33 nM.

With `CC(C)(C)S(=O)(=O)c1ccc(Nc2nn([C@]3(CC#N)CCCOC3)c3cc[nH]c(=O)c23)cc1` [Example 5-183, [(3S)-3-(3-{[4-(tert-butylsulfonyl)phenyl]amino}-4-oxo-4,5-dihydro-1H-pyrazolo[4,3-c]pyridin-1-yl)tetrahydro-2H-pyran-3-yl]acetonitrile], the results for the IC50 in assay [1] and in assay [2] were 0.17 nM and 0.47 nM, respectively.

In the case of `CC(C)OC(=O)N1CCC(CC#N)(n2nc(Nc3ccc(S(=O)(=O)N(C)C)cc3)c3c(=O)[nH]ccc32)CC1` [Example 10-6, isopropyl 4-(cyanomethyl)-4-(3-((4-(N,N-dimethylsulfamoyl)phenyl)amino)-4-oxo-4,5-dihydro-1H-pyrazolo[4,3-c]pyridin-1-yl)piperidine-1-carboxylate], the IC50 in assay [1] came to 0.12 nM; in assay [2] it was 0.27 nM.

Take `CC(C)(C)OC(=O)[C@@H]1CC[C@@](CC#N)(n2nc(Nc3ccc4ncccc4c3)c3c(=O)[nH]ccc32)CO1` [Example 5-215, (2S,5S)-tert-butyl 5-(cyanomethyl)-5-(4-oxo-3-(quinolin-6-ylamino)-4,5-dihydro-1H-pyrazolo[4,3-c]pyridin-1-yl)tetrahydro-2H-pyran-2-carboxylate]: the IC50 in assay [1] is 0.07 nM; in assay [2], 0.63 nM.

`N#CC[C@]1(n2nc(Nc3ccc(OC(F)(F)F)cc3)c3c(=O)[nH]ccc32)CC[C@H](Nc2ccccc2)CC1` [Example 18-18, Trans 2-(1-(4-oxo-3-((4-(trifluoromethoxy)phenyl)amino)-4,5-dihydro-1H-pyrazolo[4,3-c]pyridin-1-yl)-4-(phenylamino)cyclohexyl)acetonitrile]: the 50% inhibitory concentration (IC50) in assay [1] was 7.27 nM; in assay [2] it was 54.7 nM.

Turning to `CC(C)OC(=O)[C@@H]1CC[C@@](CC#N)(n2nc(Nc3ccc4c(c3)CN(C(C)(C)C)S4(=O)=O)c3c(=O)[nH]ccc32)CO1` [Example 19-3, (2S,5S)-isopropyl 5-(3-((2-(tert-butyl)-1,1-dioxido-2,3-dihydrobenzo[d]isothiazol-5-yl)amino)-4-oxo-4,5-dihydro-1H-pyrazolo[4,3-c]pyridin-1-yl)-5-(cyanomethyl)tetrahydro-2H-pyran-2-carboxylate], the IC50 was found to be 0.04 nM in assay [1] and 0.06 nM in assay [2].

With `CC(C)(C)OC(=O)[C@@H]1CC[C@@](CC#N)(n2nc(Nc3ccc([C@H](N)C(F)(F)F)cc3)c3c(=O)[nH]ccc32)CO1` (single isomer, unassigned) [Example 5-53, (2S,5S)-tert-butyl 5-(3-((4-((S or R)-1-amino-2,2,2-trifluoroethyl)phenyl)amino)-4-oxo-4,5-dihydro-1H-pyrazolo[4,3-c]pyridin-1-yl)-5-(cyanomethyl) tetrahydro-2H-pyran-2-carboxylate], the IC50 in assay [1] worked out at 0.19 nM; in assay [2], 0.57 nM.
